Assay results reported in patent US11952582B2, “Herbicide-resistance gene and application thereof in plant breeding” (priority 2017, dated 2024).

Columns and labels:
[1] = test system: Arabidopsis WT (Col0), OE At, OE Pa, OE M3 lines; test: Arabidopsis seed germination test on herbicide-containing 1/2 MS medium; format: in vivo, Arabidopsis thaliana; conditions: 2 weeks
Method: In order to evaluate the resistance of different HPPD overexpression lines to herbicides, Arabidopsis seed germination tests were performed on media containing different concentrations of herbicides. T3 generation Arabidopsis seeds and Co10 (WT) seeds were performed steam surface sterilization (concentrated HCl: NaClO=1:5, v/v) for 3 h. Seeds of OE At (OE At #1, OE At #2), OE Pa (OE Pa #1, OE Pa #2), OE M3 (OE M3 #1, OE M3 #2) and Co10 (WT) were dibbled together in ^1/2 MS medium (0.5 x MS salt, 1% sucrose and 0.8% agar) in a 24-well plate, and the medium contained different concentrations (0, 31.25, 62.5, 125, 500 and 2000 nM) of mesotrione (Sigma Aldrich, USA) and sulcotrione (Sigma Aldrich, USA). Then, the plate dibbled seeds was placed in the dark at 4° C. for 3 d, and then transferred to a growth chamber at 22° C. (16 h light/8 h dark) for 2 weeks. Three biological replicates were performed per treatment per species. After 2 weeks, the test results were photographed.

PaHPPD-SDM = PaHPPD-SDM (Pseudomonas aeruginosa, UniProt Q9I576, A156V/E349K/R282S); conditions: higher doses in the range 0-60 of herbicide
Sequence of PaHPPD-SDM (Q9I576 whole entry A156V/R282S/E349K): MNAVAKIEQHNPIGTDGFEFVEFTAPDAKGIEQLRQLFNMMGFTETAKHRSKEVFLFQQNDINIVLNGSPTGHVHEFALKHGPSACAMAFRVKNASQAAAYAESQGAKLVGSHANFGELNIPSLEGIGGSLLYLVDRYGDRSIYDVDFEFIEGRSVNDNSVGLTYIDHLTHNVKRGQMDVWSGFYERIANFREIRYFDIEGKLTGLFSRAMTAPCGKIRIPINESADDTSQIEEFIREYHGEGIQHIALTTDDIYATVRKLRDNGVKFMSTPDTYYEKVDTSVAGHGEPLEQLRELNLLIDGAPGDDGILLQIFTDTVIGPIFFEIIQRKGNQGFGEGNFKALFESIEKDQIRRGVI
From the text: Specifically, the presence of tyrosine aminotransferase in E. coli DH5a can catalyze the production of p-hydroxyphenylpyruvate (4-HPP) from tyrosine, which is used as a substrate for HPPD to produce homogentisic acid (HGA). After further oxidation and polymerization, a brown substance is produced. The addition of HPPD inhibitors will inhibit this reaction, thereby reducing the production of pigment. Therefore, the gradation of pigment can be used as an inhibition index of HPPD activity. […] Through heterologous expression of HPPD mutant genes from different species in E. coli DH5α, the resistance characteristics of E. coli DH5α-mutated gene to triketone herbicides were analyzed by detecting the absorption value of pigment at 405 nm (FIGS. 2-6, 8 and 9).
The PaHPPD mutants obtained by random mutation was cloned into E. coli cells together with wild-type PaHPPD and AtHPPD for comparation and screening.
The bacteria solution shaking cultured overnight at 37° C. was centrifuged, and 200 μL of supernatant was transferred to a sterile 96-well plate (microplate with high throughput characteristics) using a 200 μL pipette on an ultra-clean workbench. The pigment content was measured with a microtiter plate reader at a wavelength of 405 nm (OD405 nm), and the HPPD activity was evaluated according to the size of the OD value.
Then the obtained PaHPPD-SDM mutant was compared with its parental mutants (PaHPPD-M3, PaHPPD-DS18, and PaHPPD-DS73) to understand their ability of brown pigmentation in the presence of triketone herbicides at different doses (0-60 μM). The calculation formula of HPPD activity (%) is as follows: HPPD activity(%)=(Am/Ac)×100
Wherein Am refers to the average value of the absorbance at a specific herbicide dose, and Ac refers to the average value of the absorbance without the herbicide.

Structure (SMILES) | concentration giving albino death / severely inhibited growth ([1]; OE At (two lines) and WT) | concentration at which seedlings grow normally ([1]; OE Pa (two lines), T3 seeds) | resistance by HPPD activity (%) compared with WT, PaHPPD-M3, PaHPPD-DS18 and PaHPPD-DS73 (PaHPPD-SDM)
CS(=O)(=O)c1ccc(C(=O)C2C(=O)CCCC2=O)c(Cl)c1 [sulcotrione] | 31.25 nM | 62.5 nM | improved the resistance
CS(=O)(=O)c1ccc(C(=O)C2C(=O)CCCC2=O)c(Cl)c1COCC(F)(F)F [tembotrion] |  |  | improved the resistance
